In PubChem BioAssay AID588698 (Southern Research Specialized Biocontainment Screening …, 2011):
Results filed as inconclusive are left out. The source made the active and inactive calls.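 Rule for the calls: active = inhibition of 30% or more at any tested concentration; inactive = the rest, inconclusive results apart.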

Molecular target: M1-family alanyl aminopeptidase (Plasmodium falciparum 3D7)
Test: PfM1AAP enzyme inhibition, dose response, selectivity assay for PfM17LAP inhibitor project, biochemical, QFRET, H-Leu-NHMec substrate (AID 588698)
Conditions: recombinant PfM1AAP, H-Leu-NHMec fluorogenic substrate cleavage

IC50, active:
O=C(Cc1cccc2ccccc12)NO 79.4 µM, O=C(Cc1ccc2ccccc2c1)NO 33.7 µM

Same assay, conditions: recombinant PfM1AAP, H-Leu-NHMec fluorogenic substrate cleavage; at 100 µM (top of the series)

inhibition, inactive:
O=C(Nc1ccc(Cl)cc1)Nc1ccccc1C(=O)O, COC(=O)c1c(NC(=O)c2ccccc2C(=O)O)sc2c1CCCC2, COC(=O)c1c(NC(=O)C2CC=CCC2C(=O)O)sc(C)c1-c1ccc(C)cc1 (stereo not drawn), COC(=O)c1c(NC(=O)C2CCCCC2C(=O)O)sc2c1CCC(c1ccccc1)C2 (stereo not drawn), Cc1cc(SCC(=O)Nc2ccccc2C(=O)O)nc2ccccc12, CC(C)C[C@H](N)C(=O)NO, COc1ccc(-c2nnc(NC(=O)C3CC(C)=C(C)CC3C(=O)O)s2)cc1 (stereo not drawn), COC(=O)c1cc(OC)c(OC)cc1NC(=O)c1sc2nc(C)ccc2c1N, Cc1cc(=O)[nH]c(SCC(=O)Nc2ccccc2)n1, Cc1ccc(NC(=O)CSc2nc(O)cc(=O)n2Cc2ccccc2)cc1, COc1cc(NC(=O)c2ccc(-c3ccccc3)cc2)c(C(=O)O)cc1OC, O=C1OCCC1Sc1nnc(NC2CCCCC2)s1 (stereo not drawn), O=C(O)c1ccccc1C(=O)Nc1nc2c(s1)CCCC2, COc1ccc(OCCC(=O)NO)cc1, NC(N)=NCCC[C@H](N)C(=O)NO, O=C(CSc1nccc(=O)[nH]1)Nc1ccc(Oc2ccccc2)cc1, CC1=C(C)CC(C(=O)Nc2ccc(Oc3ccc(Cl)cc3)cc2)C(C(=O)O)C1 (stereo not drawn), COC(=O)c1ccccc1NC(=O)c1ccc2c(Cl)c3c(nc2c1)CCC3, COC(=O)c1ccccc1NC(=O)c1cc2cc3ccc(C)cc3nc2s1, O=C(CSc1nccc(=O)[nH]1)Nc1ccc(N2CCOCC2)cc1, CCC(C)(C)C1CCc2c(sc(NC(=O)C3CC(C)=C(C)CC3C(=O)O)c2C(=O)OC)C1 (stereo not drawn), COc1cc(NC(=O)CSc2ccccc2)c(C(=O)O)cc1OC, CCn1c2ccccc2c2cc(NC(=O)CSc3nc(C)cc(=O)[nH]3)ccc21, CC1CCc2sc(C(=O)Nc3cccc4c3C(=O)NC4)cc2C1 (stereo not drawn), O=C(CSc1nc(O)cc(=O)[nH]1)Nc1ccccc1, CC1=C(C)CC(C(=O)Nc2nc(-c3cc(C)ccc3C)c(C)s2)C(C(=O)O)C1 (stereo not drawn)
